Experimental data reported in patent US8846948B2, “Compounds” (Boehringer Ingelheim International GmbH, priority 2011, dated 2014).

Target: T1, human recombinant mGluR5 (Homo sapiens, UniProt P41594)
T1 construct: expressed in transfected cells; host or cells: HEK 293 cell line, cultured with tetracycline, hygromycin and geneticin
Test: Positive modulation of mGluR5, calcium based FLIPR assay
Conditions: EC50 of the modulation; HEK 293 cell line expressing human recombinant mGluR5; peak height of Ca release fluorescence signal after glutamate at approximately 5% basal stimulation
Protocol: The positive modulation of mGluR5 is measured in a HEK 293 cell line expressing human recombinant mGluR5 and is detected with calcium based FLIPR assay. The cells are cultured with DMEM supplemented with 10% FCS, 2 μg/mL tetracycline, 100 μg/mL hygromycin and 500 μg/mL gneticin. The cell culture media is exchanged for tetracycline-free cell culture media 3-7 days before the assay. One day before the assay the cell culture medium is exchanged to DMEM without glutamine and phenol red and supplemented with 10% FCS, 100 μg/mL hygromycin and 500 μg/mL geneticin. On the assay day, the medium of the subconfluent cultures is removed and the cells are detached by addition of 2.5 ml EDTA (0.02%) per 175 cm2 culture flask for 1 minute. The cells are resuspend in Ringer solution (140 mM NaCl, 5 mM KCl, 2.5 mM CaCl2, 1.5 mM MgCl2, 5 mM Glucose, 10 mM Hepes; adjusted to pH 7.4 with NaOH), pooled and Ringer solution added to adjust the volume to 50 mL. The cell suspension is centrifuged for […] at 1500 U/min (425 g). The supernatant is removed and the cells washed a second time with 50 ml fresh Ringer solution and centrifuged again as before. The supernatant is again removed and the pellet resuspended in Ringer solution to 1,000,000 cells/ml (1×10^6 cells/mL). The cells are plated onto BD BioCoat Poly-D-Lysine 384 well plates (20.000 cells/well; 20 μl/well). The lid covered plates are then incubated until use at 37° C./10% CO2. For dye loading, 20 μl of Calcium-4 assay kit solution (prepared according to the manufacturer's description in Ringer solution) are added to the cells and the plates are incubated for […] 37° C. and then […] at room temperature.
Controls, Compound dilution and assay execution:
Each assay plate contained wells with “high” and “low” controls:
Low controls 1% DMSO/ringer solution+basal glutamate activation (defined as 100% CTL).
High controls 10 μM CDPPB+basal glutamate activation (defined as 200% CTL).
Test compounds are dissolved and diluted in DMSO to 100-fold the desired concentrations. In a second step, the compounds are diluted in Ringer solution such that the compounds are 4-fold more concentrated than the desired final assay concentration. The final DMSO concentration was 1%.
20 μl of each compound solution are then transferred to the assay plate and the Ca2+ kinetic is measured to determine any intrinsic compound activity. After 5 mM incubation in the FLIPR device, the second stimulation with 20 μl of glutamate in Ringer solution (glutamate concentration adjusted to approximately 5% basal stimulation of the maximal possible glutamate effect) is added and the kinetic Ca2+ response of the wells was measured for the modulation effect.
The peak height of the Ca release related fluorescence signal (9-66) is used for the EC50. The EC50 of the modulation is calculated over a nonlinear regression with GraphPad Prism (Table 1).

T1 sequence (P41594 21-1212): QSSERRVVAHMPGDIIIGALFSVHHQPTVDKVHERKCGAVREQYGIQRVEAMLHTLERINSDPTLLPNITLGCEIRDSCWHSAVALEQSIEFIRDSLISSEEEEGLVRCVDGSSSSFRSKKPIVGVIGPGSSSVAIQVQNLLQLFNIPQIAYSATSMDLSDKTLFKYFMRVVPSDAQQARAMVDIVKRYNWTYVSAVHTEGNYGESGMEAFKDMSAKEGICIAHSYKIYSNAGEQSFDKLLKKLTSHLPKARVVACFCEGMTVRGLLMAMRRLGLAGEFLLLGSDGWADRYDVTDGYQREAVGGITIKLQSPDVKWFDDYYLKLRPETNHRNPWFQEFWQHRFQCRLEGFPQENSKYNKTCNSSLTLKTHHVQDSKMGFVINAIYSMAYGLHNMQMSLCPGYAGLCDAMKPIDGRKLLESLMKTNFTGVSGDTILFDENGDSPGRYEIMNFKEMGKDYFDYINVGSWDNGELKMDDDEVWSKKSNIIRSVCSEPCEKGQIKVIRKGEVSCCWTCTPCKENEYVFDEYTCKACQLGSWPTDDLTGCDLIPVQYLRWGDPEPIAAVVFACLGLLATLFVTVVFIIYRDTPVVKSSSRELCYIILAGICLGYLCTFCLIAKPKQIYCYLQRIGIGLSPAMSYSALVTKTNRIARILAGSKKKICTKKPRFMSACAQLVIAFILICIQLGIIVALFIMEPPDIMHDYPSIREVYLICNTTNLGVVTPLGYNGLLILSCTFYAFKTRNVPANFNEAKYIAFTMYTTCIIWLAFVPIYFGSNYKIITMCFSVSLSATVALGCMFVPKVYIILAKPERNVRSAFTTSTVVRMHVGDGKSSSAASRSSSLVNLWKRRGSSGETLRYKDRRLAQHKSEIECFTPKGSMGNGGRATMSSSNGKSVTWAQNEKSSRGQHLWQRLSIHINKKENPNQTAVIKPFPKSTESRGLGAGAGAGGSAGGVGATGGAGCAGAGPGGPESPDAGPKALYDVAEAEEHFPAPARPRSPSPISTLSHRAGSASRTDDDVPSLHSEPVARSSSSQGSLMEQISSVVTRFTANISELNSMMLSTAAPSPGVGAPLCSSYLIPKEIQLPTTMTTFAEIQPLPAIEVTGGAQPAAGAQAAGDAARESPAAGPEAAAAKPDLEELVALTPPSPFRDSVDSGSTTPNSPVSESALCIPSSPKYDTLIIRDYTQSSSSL

| SMILES | EC50 [nM] |
| --- | --- |
| O=C(Cn1cc(-c2ccccc2)nc1-c1ccccc1)N1CCN(c2ncccn2)CC1 [Example 7.01.01., 2-(2,4-Diphenyl-imidazol-1-yl)-1-(4-pyrimidin-2-yl-piperazin-1-yl)-ethanone] | 1290 |
| COc1ccnc(N2CCN(C(=O)Cn3cc(-c4ccc(F)c(C)c4)nc3-c3ccccc3)CC2)c1 [Example 7.01.02.] | 84 |
| Cc1cc(-c2cn(CC(=O)N3CCN(c4ncccn4)CC3)c(-c3ccccc3)n2)ccc1F [Example 7.01.03.] | 41 |
| Cc1cc(-c2cn(CC(=O)N3CCN(c4cccnn4)CC3)c(-c3ccccc3)n2)ccc1F [Example 7.01.04.] | 363 |
| COc1cc(N2CCN(C(=O)Cn3cc(-c4ccc(F)c(C)c4)nc3-c3ccccc3)CC2)ncn1 [Example 7.01.05.] | 159 |
| Cc1cc(-c2cn(CC(=O)N3CCN(c4ccccn4)CC3)c(-c3ccccc3)n2)ccc1F [Example 7.01.06.] | 76 |
| COc1cnc(N2CCN(C(=O)Cn3cc(-c4ccc(F)c(C)c4)nc3-c3ccccc3)CC2)nc1 [Example 7.01.07.] | 53 |
| Cc1cc(-c2cn(CC(=O)N3CCN(c4ncc(F)cn4)CC3)c(-c3ccccc3)n2)ccc1F [Example 7.01.08.] | 97 |
| COc1cc(N2CCN(C(=O)Cn3cc(-c4ccc(F)c(C)c4)nc3C3CCCCC3)CC2)ncn1 [Example 7.01.09.] | 1320 |
| COc1ccnc(N2CCN(C(=O)Cn3cc(-c4ccc(F)c(C)c4)nc3C3CCCCC3)CC2)c1 [Example 7.01.10.] | 737 |
| Cc1cc(-c2cn(CC(=O)N3CCN(c4ccccn4)CC3)c(C3CCCCC3)n2)ccc1F [Example 7.01.11.] | 710 |
| Cc1cc(-c2cn(CC(=O)N3CCN(c4ncccn4)CC3)c(C3CCCCC3)n2)ccc1F [Example 7.01.12.] | 458 |
| Cc1cc(-c2cn(CC(=O)N3CCN(c4ncnc5[nH]cnc45)CC3)c(C3CCCCC3)n2)ccc1F [Example 7.01.13.] | 857 |
| COc1ccnc(N2CCN(C(=O)Cn3cc(-c4cccc(C)c4)nc3-c3ccccc3)CC2)c1 [Example 7.01.33.] | 148 |
| Cc1cccc(-c2cn(CC(=O)N3CCN(c4cccnn4)CC3)c(-c3ccccc3)n2)c1 [Example 7.01.34.] | 858 |
| Cc1cccc(-c2cn(CC(=O)N3CCN(c4ccccn4)CC3)c(-c3ccccc3)n2)c1 [Example 7.01.35.] | 73 |
| COc1cc(N2CCN(C(=O)Cn3cc(-c4cccc(C)c4)nc3-c3ccccc3)CC2)ncn1 [Example 7.01.36.] | 196 |
| COc1ccc(-c2cn(CC(=O)N3CCN(c4ccccn4)CC3)c(-c3ccccc3)n2)cc1 [Example 7.02.01., 2-[4-(4-Methoxy-phenyl)-2-phenyl-imidazol-1-yl]-1-(4-pyridin-2-yl-piperazin-1-yl)-ethanone] | 464 |

| SMILES | EC50 [nM] |
| --- | --- |
| Cc1ccc(-c2nc(-c3ccccc3)cn2CC(=O)N2CCN(c3ccccn3)CC2)cc1 [Example 7.02.02.] | 1640 |
| Cc1ccc(-c2cn(CC(=O)N3CCN(c4ncccn4)CC3)c(-c3ccccc3)n2)cc1 [Example 7.03.02.] | 67 |
| Cc1cc(-c2cn(CC(=O)N3CCN(c4ncccn4)CC3)c(-c3ccccc3)n2)ccc1Cl [Example 7.03.03.] | 54 |
| O=C(Cn1cc(-c2cccc(F)c2)nc1-c1ccccc1)N1CCN(c2ncccn2)CC1 [Example 7.03.04.] | 395 |
| O=C(Cn1cc(-c2ccc(F)c(Cl)c2)nc1-c1ccccc1)N1CCN(c2ncccn2)CC1 [Example 7.03.05.] | 87 |
| CCOc1ccc(-c2cn(CC(=O)N3CCN(c4ncccn4)CC3)c(-c3ccccc3)n2)cc1 [Example 7.03.06.] | 680 |
| Cc1cc(-c2cn(CC(=O)N3CCN(c4ncccn4)CC3)c(-c3ccccc3)n2)cc(C)c1F [Example 7.03.07.] | 38 |
| CCOc1cccc(-c2cn(CC(=O)N3CCN(c4ncccn4)CC3)c(-c3ccccc3)n2)c1 [Example 7.03.08.] | 151 |
| Cc1ccc(-c2cn(CC(=O)N3CCN(c4ncccn4)CC3)c(-c3ccccc3)n2)cc1Cl [Example 7.03.09.] | 48 |
| O=C(Cn1cc(-c2ccc(F)c(F)c2)nc1-c1ccccc1)N1CCN(c2ncccn2)CC1 [Example 7.03.10.] | 159 |
| CN1CCOc2cc(-c3cn(CC(=O)N4CCN(c5ncccn5)CC4)c(-c4ccccc4)n3)ccc21 [Example 7.03.11.] | 914 |
| COc1cc(-c2cn(CC(=O)N3CCN(c4ncccn4)CC3)c(-c3ccccc3)n2)ccc1C [Example 7.03.12.] | 29 |
| O=C(Cn1cc(-c2cccc(Cl)c2)nc1-c1ccccc1)N1CCN(c2ncccn2)CC1 [Example 7.03.13.] | 158 |
| O=C(Cn1cc(-c2cccc(C(F)(F)F)c2)nc1-c1ccccc1)N1CCN(c2ncccn2)CC1 [Example 7.03.14.] | 183 |
| O=C(Cn1cc(-c2ccc3c(c2)CCCO3)nc1-c1ccccc1)N1CCN(c2ncccn2)CC1 [Example 7.03.15.] | 61 |
| Cn1cnc2ccc(-c3cn(CC(=O)N4CCN(c5ncccn5)CC4)c(-c4ccccc4)n3)cc21 [Example 7.03.16.] | 1530 |
| COc1cc(-c2cn(CC(=O)N3CCN(c4ncccn4)CC3)c(-c3ccccc3)n2)ccc1F [Example 7.03.17.] | 40 |
| CCc1ccc(-c2cn(CC(=O)N3CCN(c4ncccn4)CC3)c(-c3ccccc3)n2)cc1 [Example 7.03.18.] | 74 |

The remaining lines, values ahead:

| EC50 [nM] | SMILES |
| --- | --- |
| 306 | COc1ccnc(N2CCN(C(=O)Cn3cc(-c4ccc(F)cc4)nc3-c3ccccc3)CC2)c1 [Example 7.01.14.] |
| 858 | O=C(Cn1cc(-c2ccc(F)cc2)nc1-c1ccccc1)N1CCN(c2ncnc3[nH]cnc23)CC1 [Example 7.01.15.] |
| 877 | COc1cc(N2CCN(C(=O)Cn3cc(-c4ccc(F)cc4)nc3-c3ccccc3)CC2)ncn1 [Example 7.01.16.] |
| 542 | O=C(Cn1cc(-c2ccc(F)cc2)nc1-c1ccccc1)N1CCN(c2ccccn2)CC1 [Example 7.01.17.] |
| 99 | COc1cc(N2CCN(C(=O)Cn3cc(-c4ccc(F)c(C)c4)nc3-c3ccc(F)cc3)CC2)ncn1 [Example 7.01.18.] |
| 31 | Cc1cc(-c2cn(CC(=O)N3CCN(c4ncccn4)CC3)c(-c3ccc(F)cc3)n2)ccc1F [Example 7.01.19.] |
| 73 | Cc1cc(-c2cn(CC(=O)N3CCN(c4ncnc5[nH]cnc45)CC3)c(-c3ccc(F)cc3)n2)ccc1F [Example 7.01.20.] |
| 144 | Cc1cc(-c2cn(CC(=O)N3CCN(c4cccnn4)CC3)c(-c3ccc(F)cc3)n2)ccc1F [Example 7.01.22.] |
| 75 | COc1ccnc(N2CCN(C(=O)Cn3cc(-c4ccc(F)c(C)c4)nc3-c3ccc(F)cc3)CC2)c1 [Example 7.01.23.] |
| 147 | Cc1cc(-c2cn(CC(=O)N3CCN(c4ncncn4)CC3)c(-c3ccc(F)cc3)n2)ccc1F [Example 7.01.24.] |
| 69 | COc1cnc(N2CCN(C(=O)Cn3cc(-c4ccc(F)c(C)c4)nc3-c3ccc(F)cc3)CC2)nc1 [Example 7.01.25.] |
| 83 | Cc1cc(-c2cn(CC(=O)N3CCN(c4ncc(F)cn4)CC3)c(-c3ccc(F)cc3)n2)ccc1F [Example 7.01.26.] |
| 238 | COc1cc(N2CCN(C(=O)Cn3cc(-c4ccc(F)cc4)nc3-c3ccc(F)cc3)CC2)ncn1 [Example 7.01.27.] |
| 262 | O=C(Cn1cc(-c2ccc(F)cc2)nc1-c1ccc(F)cc1)N1CCN(c2ncnc3[nH]cnc23)CC1 [Example 7.01.28.] |
| 889 | O=C(Cn1cc(-c2ccc(F)cc2)nc1-c1ccc(F)cc1)N1CCN(c2cccnn2)CC1 [Example 7.01.29.] |
| 168 | COc1ccnc(N2CCN(C(=O)Cn3cc(-c4ccc(F)cc4)nc3-c3ccc(F)cc3)CC2)c1 [Example 7.01.30.] |
| 244 | O=C(Cn1cc(-c2ccc(F)cc2)nc1-c1ccc(F)cc1)N1CCN(c2ccccn2)CC1 [Example 7.01.31.] |
| 131 | Cc1cccc(-c2cn(CC(=O)N3CCN(c4ncnc5[nH]cnc45)CC3)c(-c3ccccc3)n2)c1 [Example 7.01.32.] |
| 272 | O=C(Cn1cc(-c2ccc(F)cc2)nc1-c1ccccc1)N1CCN(c2ncccn2)CC1 [Example 7.03.01., 2-[4-(4-Fluoro-phenyl)-2-phenyl-imidazol-1-yl]-1-(4-pyrimidin-2-yl-piperazin-1-yl)-ethanone] |
